From patent publication US20030082101A1, “Accelerators for increasing the rate of formation of free radicals and reactive oxygen species” (Cavalier Discovery, priority 2001, published 2003) come the findings set out here.

What all share (format): biochemical
For test [1], the system named is deoxyribose. Put plainly: TBARS assay, chelants 0.07-0.11 mM during ultrasound exposure, ferrous iron (Example 3). The settings on record: 0.025 mM ferrous iron, 0.07-0.11 mM chelant, 0.01% hydrogen peroxide, pH 7.5, 30 W 2 MHz 10 min. As for the experimental part: (§1) The following example uses the thiobarbituric acid-reactive substances (TBARS) assay to identify chelants that enhance radical production during ultrasound exposure. All solutions were prepared in pH 7.5 phosphate buffer containing approximately 2 mM deoxyribose, 0.01% hydrogen peroxide, 0.025 mM ferrous iron, and 0.07-0.11 mM chelant. Solutions were sonicated at 30 W, 2 MHz, 32-34 degrees Celsius for ten minutes using a PZT-8 1.8 cm diameter custom transducer. The sonicated solution was placed on an orbit shaker rotating at 25 RPM to ensure even sonication of the solution while the transducer was held stationary. Control solutions were placed in a controlled temperature bath at 32-34 degrees Celsius without sonication. After 10 minutes of treatment, 1 mL test solution was placed in a test tube followed by 2 mL of 1% 2-thiobarbituric acid and 2 mL of 2.8% trichloroacetic acid. The test tube was sealed and heated to 90 degrees Celsius for 30 minutes and allowed to cool to room temperature for 20 minutes. The absorbance at 532 nm was measured. The enhanced radical production during ultrasound exposure was determined by comparing the amount of deoxyribose degradation that occurs in the sonicated solution versus the control solution using the following equation: [formula]

In test [2] the test system is deoxyribose. Put plainly: TBARS assay, chelants 0.07-0.11 mM during ultrasound exposure, ferric iron (Example 4). The settings on record: 0.02-0.03 mM ferric iron, 0.07-0.11 mM chelant, 0.01% hydrogen peroxide, pH 7.5, 30 W 2 MHz 10 min. How it is done: as §1, with “0.02-0.03” for “0.025”, “ferric” for “ferrous”
A short description of test [3]: Free radical production when exposed to ultrasound and a metal (statements in the description). The settings on record: for free radical production: when exposed to ultrasound and a metal.
The test system of test [4] is deoxyribose. Nature of the test: TBARS assay, anti tumor antibiotics, ultrasound (Example 12). The settings on record: 0.005 mM ferrous iron, 0.005 mM ferric iron, 15 min. How it is done: The following example uses the thiobarbituric acid-reactive substances (TBARS) assay to identify anti tumor antibiotics that enhance radical production during ultrasound. All solutions are prepared in pH 7.5 phosphate buffer containing approximately 2 mM deoxyribose, 0.01% hydrogen peroxide, 0.005 mM ferrous iron, 0.005 mM ferric iron, and the additives indicated in the table below. Solutions are sonicated at 30 W, 2 MHz, 32-34 degrees Celsius for fifteen minutes using a PZT-8 1.8 cm diameter custom transducer. The sonicated solution is placed on an orbit shaker rotating at 25 RPM to ensure even sonication of the solution while the transducer is held stationary. Control solutions are placed in a controlled temperature bath at 32-34 degrees Celsius without sonication. After 15 minutes of treatment, 1 mL test solution was placed in a test tube followed by 2 mL of 1% 2-thiobarbituric acid and 2 mL of 2.8% trichloroacetic acid. The test tube is sealed and heated to 90 degrees Celsius for 30 minutes and allowed to cool to room temperature for 20 minutes. The absorbance at 532 nm is measured. The enhanced radical production during ultrasound exposure is determined by comparing the amount of deoxyribose degradation that occurs in the sonicated solution versus the control solution using the following equation: [formula]

Test [5] relates to deoxyribose. Nature of the test: TBARS assay, chelants during ultrasound exposure, ferrous iron (Example 1). The settings on record: 0.025 mM ferrous iron, 0.03-0.04 mM chelant, 0.01% hydrogen peroxide, pH 7.5, 30 W 2 MHz 10 min. As for the experimental part: as §1, with “and 0.03-0.04” for “and 0.07-0.11”, “exposure is” for “exposure was”
The test system of test [6] is deoxyribose. Nature of the test: TBARS assay, chelants during ultrasound exposure, ferric iron (Example 2). The settings on record: 0.02-0.03 mM ferric iron, 0.04-0.05 mM chelant, 0.01% hydrogen peroxide, pH 7.5, 30 W 2 MHz 10 min. How it is done: as §1, with “0.02-0.03” for “0.025”, “ferric” for “ferrous”, “0.04-0.05” for “0.07-0.11”

Where a name gives a salt, the structure may show the parent alone. Some results are limits rather than exact numbers.

As for `c1cnc2c(c1)ccc1cccnc12` [1,10 Phenanthroline], in the test on deoxyribose [1], the “% Ultrasound Mediated Activity vs Control” value is listed as 33%.

With `O=S(=O)(O)c1ccc(-c2nnc(-c3ccccn3)nc2-c2ccc(S(=O)(=O)O)o2)o1` [3-(2-Pyridyl)-5,6-bis(5-sulfo-2-furyl)-1,2,4-triazine], the figures for the “% Ultrasound Mediated Activity vs Control” value in the test on deoxyribose [1] and in the test on deoxyribose [2] were 50% and 207%, respectively.

For `O=S(=O)(O)c1ccc(-c2nnc(-c3ccccn3)nc2-c2ccc(S(=O)(=O)O)cc2)cc1` [3-(2-Pyridyl)-5,6-diphenyl-1,2,4-triazine-4,4-disulfonic acid], the “% Ultrasound Mediated Activity vs Control” value in the test with deoxyribose [1] was 45%; in the test with deoxyribose [2], 136%.

As to `Nc1ncnc2c1ncn2[C@@H]1O[C@H](COP(=O)(O)OP(=O)(O)O)[C@@H](O)[C@H]1O` [Adenosine diphosphate (ADP), Adenosine diphosphate], the “% Ultrasound Mediated Activity vs Control” value in the test with deoxyribose [1] was determined as 26%; in the test with deoxyribose [2], 280%. In addition, the free radical production result in test [3] was “increase free radical production”.

On to `Cc1c(C(=O)O)c(O)cc2c1C(=O)c1c(O)c([C@@H]3O[C@H](CO)[C@@H](O)[C@H](O)[C@H]3O)c(O)c(O)c1C2=O` [Carminic acid], for which the “% Ultrasound Mediated Activity vs Control” value with deoxyribose [4] (0.025 mM additive) is over 100%.

With `COC1C(O)CC(OC2CC(Oc3cc4cc5c(c(O)c4c(O)c3C)C(=O)[C@@H](OC3CC(OC4CC(OC6CC(C)(O)C(OC(C)=O)C(C)O6)C(O)C(C)O4)C(O)C(C)O3)[C@H]([C@H](OC)C(=O)[C@@H](O)[C@@H](C)O)C5)OC(C)C2OC(C)=O)OC1C` (stereo partly drawn) [Chromomycin], the “% Ultrasound Mediated Activity vs Control” value with deoxyribose [4] (0.025 mM additive) is reported as over 100%.

As to `O=C(O)CC(O)(CC(=O)O)C(=O)O` [Citrate], the “% Ultrasound Mediated Activity vs Control” value in the test with deoxyribose [1] was 31%; in the test on deoxyribose [2], 161%. Further, the free radical production result in test [3] was “increase free radical production”.

In the case of `COc1cccc2c1C(=O)c1c(O)c3c(c(O)c1C2=O)C[C@@](O)(C(C)=O)C[C@@H]3O[C@H]1C[C@H](N)[C@H](O)[C@H](C)O1` [Daunomycin], in the test with deoxyribose [4] (0.1 mM additive), the “% Ultrasound Mediated Activity vs Control” value is over 100%.

In the case of `CC(=O)N(O)CCCCCNC(=O)CCC(=O)N(O)CCCCCNC(=O)CCC(=O)N(O)CCCCCN` [Desferrioxamine mesylate], the entries for the “% Ultrasound Mediated Activity vs Control” value in the test on deoxyribose [5] and in the test with deoxyribose [6] were 92% and 81%, respectively.

As for `O=C(O)CN(CC(=O)O)C1CCCCC1N(CC(=O)O)CC(=O)O` (stereo not drawn) [Diaminocyclohexane-N,N,N′,N′-tetraacetic acid], the “% Ultrasound Mediated Activity vs Control” value in the test on deoxyribose [5] amounted to 61%; in the test with deoxyribose [6], 446%.

On to `O=C(O)CN(CCN(CC(=O)O)CC(=O)O)CCN(CC(=O)O)CC(=O)O` [Diethylenetriaminepentaacetic acid], for which the “% Ultrasound Mediated Activity vs Control” value with deoxyribose [6] came to 177%.

Take `COc1cccc2c1C(=O)c1c(O)c3c(c(O)c1C2=O)C[C@@](O)(C(=O)CO)C[C@@H]3O[C@H]1C[C@H](N)[C@@H](O)[C@H](C)O1` [Epirubicin]: the “% Ultrasound Mediated Activity vs Control” value in the test with deoxyribose [4] (0.1 mM additive) is listed as over 100%.

In the case of `O=C(O)CN(CCOCCOCCN(CC(=O)O)CC(=O)O)CC(=O)O` [Ethylene glycol-bis(2-aminoethyl)-N,N,N′,N′-tetraacetic acid], the “% Ultrasound Mediated Activity vs Control” value in the test on deoxyribose [5] amounted to 29%; in the test on deoxyribose [6] it was 520%.

Consider `CO[C@@]12[C@H](COC(N)=O)C3=C(C(=O)C(C)=C(N)C3=O)N1C[C@@H]1N[C@@H]12` [Mitomycin C], for which the “% Ultrasound Mediated Activity vs Control” value in the test on deoxyribose [4] (0.025 mM additive) is over 100%.

On to `O=C(O)CN(CCO)CCN(CC(=O)O)CC(=O)O` [N-(2-Hydroxyethyl)ethylenediamine-N,N′,N′-triacetic acid], for which the “% Ultrasound Mediated Activity vs Control” value with deoxyribose [5] was 34%; with deoxyribose [6], 224%.

For `O=C(O)CN(CC(=O)O)CC(=O)O` [Nitriloacetic acid], the “% Ultrasound Mediated Activity vs Control” value was 69% in the test with deoxyribose [5] and 238% in the test on deoxyribose [6].

For `O=C(O)c1ccccn1` [Picolinic Acid], the “% Ultrasound Mediated Activity vs Control” value with deoxyribose [1] came out at 53%; with deoxyribose [2], 175%.

For the compound `COC1=C(N)C(=O)c2nc(-c3nc(C(=O)O)c(C)c(-c4ccc(OC)c(OC)c4O)c3N)ccc2C1=O` [Streptonigrin], the “% Ultrasound Mediated Activity vs Control” value in the test with deoxyribose [4] (0.025 mM additive) is given as over 100%.

For `O=C(O)P(=O)(O)O` [phosphonoformic acid], the radical production entry in test [3] (added to an iron/EDTA system, ultrasound) was “radical production was increased”.

As for `O=S([O-])[O-].[Na+].[Na+]` [sodium sulfite], the free radical production result in test [3] is given as “increase free radical production”.

With Olivomycin, the “% Ultrasound Mediated Activity vs Control” value in the test with deoxyribose [4] (0.025 mM additive) is over 100%.
